The source of these data is US9603854B2, “Indolizine compounds, a process for their preparation and pharmaceutical compositions containing them” (LES LABORATOIRES SERVIER, priority 2012, dated 2017).

Counter-ions that a name gives are not always drawn.

Assay [1] relates to RS4;11 leukaemia tumour line. Briefly: In vitro cytotoxicity (Microculture Tetrazolium Assay, 48 hours). As to conditions: cytotoxicity for RS4;11 cells, MTT. The format is cell-based. As to the method: The cytotoxicity studies were carried out on the RS4;11 leukaemia tumour line.
The cells are distributed onto microplates and exposed to the test compounds for 48 hours.

For a further assay, the system named is caspase 3. Briefly: Induction of caspase activity in vivo (DEVDase activity in tumour lysates, RS4;11 xenograft). On the set-up: species or system mice (SCID strain). Particulars: oral treatment 50 mg/kg, RS4;11 xenograft in SCID mice, 16 hours after treatment; for fold induction at 50 mg/kg: Mus musculus, read-out: Activation factor (versus control), DEVDase activity in the tumours. As to the method:
The ability of the compounds of the invention to activate caspase 3 is evaluated in a xenograft model of RS4;11 leukaemia cells.
1×10^7 RS4;11 cells are grafted sub-cutaneously into immunosuppressed mice (SCID strain). 25 to 30 days after the graft, the animals are treated orally with the various compounds. Sixteen hours after treatment, the tumour masses are recovered and lysed, and the caspase 3 activity is measured in the tumour lysates.
This enzymatic measurement is carried out by assaying the appearance of a fluorigenic cleavage product (DEVDase activity, Promega). It is expressed in the form of an activation factor corresponding to the ratio between the two caspase activities: the activity for the treated mice divided by the activity for the control mice.

In the next assay the target is Bcl-2 protein (Homo sapiens (Human), UniProt P10415). The experiment in a line: Inhibition of Bcl-2 by the fluorescence polarisation technique. The assay is classed as binding. As to conditions: Bcl-2 inhibition, fluorescence polarisation test; read-out: IC50 (nM) Bcl-2 FP. As to the method:
The fluorescence polarisation tests were carried out on microplates (384 wells). […] After incubation for 2 hours, the fluorescence polarisation is measured.
(In general: In fluorescence polarisation assays a small probe gives low polarisation when free and higher when bound to something large.)

Sequence of Bcl-2 protein (P10415 whole entry): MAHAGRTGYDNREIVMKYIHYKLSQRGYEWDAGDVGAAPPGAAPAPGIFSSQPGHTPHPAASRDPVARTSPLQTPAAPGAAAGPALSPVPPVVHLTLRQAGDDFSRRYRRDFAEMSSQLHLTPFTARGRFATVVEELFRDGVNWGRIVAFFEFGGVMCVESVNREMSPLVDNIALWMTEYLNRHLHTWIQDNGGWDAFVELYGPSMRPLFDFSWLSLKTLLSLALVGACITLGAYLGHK

Usually IC50 stands for the concentration needed to halve the response being measured. Turning to `Cl.Cn1ccc2cc(N(C(=O)c3cc(-c4cc(Cl)ccc4C(=O)N4Cc5ccccc5C[C@H]4CN4CCOCC4)n4ccccc34)c3ccc(O)cc3)ccc21` [Example 67, 3-{5-Chloro-2-[((3S)-3-(4-morpholinylmethyl)-3,4-dihydro-2(1H)-isoquinolinyl)carhonyl]phenyl}-N-(4-hydroxyphenyl)-N-(1-methyl-1H-indol-5-yl)-1-indolizine carboxamide hydrochloride], the IC50 in assay [1] stood at 17.7 nM. Further, the “Activation factor (versus control), DEVDase activity in the tumours” value with caspase 3 was 18.9 (50 mg/kg).
The molecule `Cn1ccc2cc(N(C(=O)c3cc(-c4cc5c(cc4C(=O)N4Cc6ccccc6C[C@H]4CN4CCOCC4)OCO5)n4c3CCC4)c3ccc(O)cc3)ccc21` [Example 96, N-(4-Hydroxyphenyl)-N-(1-meth-1H-indol-5-yl)-5-(6-{[(3S)-3-(morpholin-4-ylmethyl)-3,4-dihydroisoquinolin-2(1H)-yl]carbonyl}-1,3-benzodioxol-5-yl)-2,3-dihydro-1H-pyrrolizine-7-carboxamide hydrochloride] came in with an IC50 in assay [1] of 58.8 nM.
On the same count and under the same terms, then `O=C(c1cc(-c2cc3c(cc2C(=O)N2Cc4ccccc4C[C@H]2CN2CCOCC2)OCO3)n2c1CCCC2)N(c1ccc(O)cc1)c1ccc(O)cc1` [Example 6, N,N-bis(4-Hydroxyphenyl)-3-{6-[((3S)-3-(4-morpholinylmethyl)-3,4-dihydro-2(1H)-isoquinolinyl)carbonyl]-1,3-benzodioxol-5-yl}-5,6,7,8-tetrahydra-1-indolizine carboxamide hydrochloride], with 30 nM.
Molecule `CCOc1ccc(C(=O)N2Cc3ccccc3C[C@H]2CN2CCOCC2)c(-c2cc(C(=O)N(c3ccc(O)cc3)c3ccc4c(ccn4C)c3)c3n2CCCC3)c1` [Example 36, 3-{5-Ethoxy-2-[((3S)-3-(4-morpholinylmethyl)-3,4-dihydro-2(1H)-isoquinolinyl)carbonyl]phenyl}-N-(4-hydroxyphenyl)-N-(1-methyl-1H-indol-5-yl)-5,6,7,8-tetrahydro-1-indolizine carboxamide hydrochloride] returned an IC50 in assay [1] (Homo sapiens) of 135 nM.
As to `O=C(c1cc(-c2cc3c(cc2C(=O)N2Cc4ccccc4C[C@H]2CN2CCOCC2)OCO3)n2ccccc12)N(c1ccccc1)c1ccc(O)cc1` [Example 58, N-(4-Hydroxyphenyl)-3-{6-[((3S)-3-(4-morpholinylmethyl)-3,4-dihydro-2(1H)-isoquinolinyl)carbonyl]-1,3-benzodioxol-5-yl}-N-phenyl-1-indolizine carboxamide hydrochloride], the IC50 at Bcl-2 protein was determined as 22 nM; in assay [1] (Homo sapiens) it was 40.1 nM. Besides, in the assay on caspase 3, the fold induction at 50 mg/kg stood at 23.3.
In assay [1], `Cn1ccc2ccc(N(C(=O)c3cc(-c4cc(Cl)ccc4C(=O)N4Cc5ccccc5C[C@H]4CN4CCOCC4)n4c3CCCCC4)c3ccc(O)cc3)cc21` [Example 83, 3-{5-Chloro-2-[((3S)-3-(4-morpholinylmethyl)-3,4-dihydro-2(1H)-isoquinolinyl)carhonyl]phenyl}-N-(4-hydroxyphenyl)-N-(1-methyl-1H-indol-6-yl)-6,7,8,9-tetrahydro-5H-pyrrolo[1,2-a]azepine-1-carboxamide hydrochloride] had an IC50 of 41.2 nM.
For `O=C(c1cc(-c2cc3c(cc2C(=O)N2Cc4ccccc4C[C@H]2CN2CCOCC2)OCO3)n2c1CCCC2)N(c1ccc(O)cc1)c1ccc(Cl)cc1` [Example 3, N-(4-Chlorophenyl)-N-(4-hydroxyphenyl)-3-{6-[((3S)-3-(4-morpholinylmethyl)-3,4-dihydro-2(1H)-isoquinolinyl)carbonyl]-1,3-benzodioxol-5-yl}-5,6,7,8-tetrahydro-1-indolizine carboxamide hydrochloride], the IC50 on Bcl-2 protein was determined as 20 nM; in assay [1] (Homo sapiens), 44.7 nM. In the assay with caspase 3, the fold induction at 50 mg/kg came out at 5.7.
Regarding `Cn1ccc2cc(N(C(=O)c3cc(-c4cc5c(cc4C(=O)N4Cc6ccccc6C[C@H]4CN4CCOCC4)OCO5)n4c3CN(C(=O)OC(C)(C)C)CC4)c3ccc(O)cc3)ccc21` [Example 72], the IC50 on Bcl-2 protein turned out to be 220 nM; in assay [1], 270 nM.
For the molecule `CN1CCc2cc(N(C(=O)c3cc(-c4cc(Cl)ccc4C(=O)N4Cc5ccccc5C[C@H]4CN4CCOCC4)c4n3CCCC4)c3ccc(O)cc3)ccc21` [Example 43, 1-{5-Chloro-2-[((3S)-3-(4-morpholinylmethyl)-3,4-dihydro-2(1H)-isoquinolinyl)carbonyl]phenyl}-N-(4-hydroxyphenyl)-N-(1-methyl-2,3-dihydro-1H-indol-5-yl)-5,6,7,8-tetrahydro-3-indolizine carboxamide hydrochloride], the IC50 at Bcl-2 protein is 110 nM.
